Data as given in patent publication US4244883A, “2a,2b-Dihomo-15-alkyl-PGF2β compounds” (The Upjohn Company, priority 1979, dated 1981).

Legend:
gastric lesions = assay: Cytoprotective effects: inhibition of ethanol-induced gastric lesions (ulcers) in female rats; type: in vivo, rat; settings: 2 mg/kg oral; for inhibition at 2 mg/kg: Rattus norvegicus, female rats 205-220 g, 30 min before 1 ml ethanol (80%) orally, examined 1 h after ethanol, read-out: % Inhibition (percent reduction in the number of gastric lesions in the treated group as compared to the control group); for cytoprotective effect (in words): female rats, 80% ethanol-induced gastric lesions
Procedure: Female rats of 205-220 g are deprived of food during the morning. At 1500 hrs, water is removed and the animals are placed in individual cages which prevent them from consuming hair or feces. The following morning, the prostaglandin analogs are administered orally at a fixed dose of 2 mg/kg in 1 ml of water containing 5% ethanol and 1% emulphor. Emulphor EL-620 is used. Thirty minutes later, 1 ml of ethanol (80%) is given orally to induce gastric lesions. One hour after ethanol administration, the animals are sacrificed with carbon dioxide, their stomachs disected out and opened along the greater curvature. Visual examination with a binocular magnifier is undertaken to determine the presence of necrotic ulcerations. The average number of ulcers per stomach is recorded. The control group of rats receiving only vehicle (ethanol 5%, emulphor 1% in water) prior to the administration of 80% ethanol is employed. From the number of ulcerations in control group animals, a percent inhibition is determined which is the percent reduction in the number of gastric lesions in the treated group as compared to the control group.
Following the procedure of Example 1, 2a,2b-dihomo-15-epi-PGF2β, methyl ester is compared for gastrointestinal cytoprotective activity with 2a,2b-dihomo-15-epi-15-methyl-PGF2β, methyl ester.

intestinal lesions = settings: rat; pre-treatment; Robert, et al., Gastroenterology 69:1045 (1974); cited from earlier work

SMILES | inhibition at 2 mg/kg (gastric lesions) | cytoprotective effect (in words) (gastric lesions) | effect on indomethacin-induced intestinal lesions (in words) (intestinal lesions)
CCCCC[C@H](O)/C=C/[C@@H]1[C@@H](C/C=C\CCCCCC(=O)OC)[C@H](O)C[C@H]1O [2a,2b-dihomo-PGF2β, methyl ester] | 32% | only modest cytoprotective effects | 
CCCCC[C@@H](O)/C=C/[C@@H]1[C@@H](C/C=C\CCCCCC(=O)OC)[C@H](O)C[C@H]1O [2a,2b-dihomo-15-epi-PGF2β, methyl ester] | 2% | negligable cytoprotective effects | 
CCCCC[C@](C)(O)/C=C/[C@@H]1[C@@H](C/C=C\CCCCCC(=O)OC)[C@H](O)C[C@H]1O [2a,2b-dihomo-15-methyl-PGF2β, methyl ester] | 96% | virtually totally cytoprotective | 
CCCCC[C@H](O)/C=C/[C@H]1[C@H](O)CC(=O)[C@@H]1C/C=C\CCCC(=O)O [PGE2] |  |  | effective in reducing indomethacin-inducedintestinal lesions
CCCCC[C@@](C)(O)/C=C/[C@@H]1[C@@H](C/C=C\CCCCCC(=O)OC)[C@H](O)C[C@H]1O [2a,2b-dihomo-15-epi-15-methyl-PGF2β, methyl ester] | 100% | totally cytoprotective | 
